Test results published in US20100120039A1, “METHODS AND COMPOSITIONS IN BREAST CANCER THERAPY RESISTANCE” (priority 2008, published 2010).
Where “and” joins values, the source holds several entries; their conditions need not be identical. Equal values may be shown once. Entries after “also recorded” stand apart in the source; their conditions may differ.

What was measured:
[1] = test system: K303R ERα-Arom pools (MCF-7); test: Soft agar assay in stable pools; assay type: cell-based, human; settings: AD 10 nmol/L + Ana 1 μmol/L
[2] = test system: PARP cleavage in K303R Arom 1 cells; test: Immunoblot of PARP proteolysis; assay type: cell-based, human; settings: AD 10 nmol/L + Ana 1 μmol/L, 24 h
[3] = test system: PARP cleavage in MCF-7 Arom 1 cells; test: Immunoblot of PARP proteolysis; assay type: cell-based, human; settings: AD 10 nmol/L + Ana 1 μmol/L, 24 h
[4] = test system: pAkt in K303R Arom 1 and 2 cells; test: Immunoblot of phosphorylated Akt; assay type: cell-based, human; settings: for basal Akt phosphorylation: LY 10 μmol/L, PI-103 1 μmol/L, Akti1/2 1 μmol/L, 30 min
[5] = test system: pAkt in MCF-7 Arom 1 cells; test: Immunoblot of phosphorylated Akt; assay type: cell-based, human
aromatase = target: T1, aromatase (Homo sapiens, UniProt P11511); test: Aromatase activity assay (3H-water release); assay type: biochemical; settings: both cells (MCF-7 and MCF-7-K303R aromatase transfectants)
T1 construct: Full-length human aromatase cDNA was amplified from the pCMV6-Arom plasmid; expressed in transfected cells; host or cells: MCF-7 parental and YFP-K303R ERα MCF-7 clones, stably transfected with pZeo-Arom
T1 sequence (P11511 1-503): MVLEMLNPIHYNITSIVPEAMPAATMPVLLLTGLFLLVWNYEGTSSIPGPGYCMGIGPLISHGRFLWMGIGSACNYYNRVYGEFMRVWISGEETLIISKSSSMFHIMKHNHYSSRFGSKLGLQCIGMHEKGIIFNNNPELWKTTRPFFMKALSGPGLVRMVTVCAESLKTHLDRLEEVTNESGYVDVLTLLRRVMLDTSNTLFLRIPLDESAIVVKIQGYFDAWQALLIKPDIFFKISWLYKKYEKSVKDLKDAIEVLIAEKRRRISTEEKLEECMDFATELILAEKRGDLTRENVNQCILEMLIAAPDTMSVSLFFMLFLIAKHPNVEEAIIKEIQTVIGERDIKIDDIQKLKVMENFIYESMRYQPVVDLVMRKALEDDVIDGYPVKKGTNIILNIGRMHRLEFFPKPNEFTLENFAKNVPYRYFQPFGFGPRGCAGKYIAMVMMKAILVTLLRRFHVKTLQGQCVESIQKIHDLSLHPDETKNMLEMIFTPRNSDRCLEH

MCF-7 Arom 1 cells [6] = test: MTT growth assay; assay type: cell-based, human; settings: AD 10 nM + Ana, 9 days, WT ERα cells
K303R Arom 1 cells [7] = test: MTT growth assay; assay type: cell-based, human; settings: AD 10 nM + Ana, 9 days, K303R mutant cells
MCF-7 Arom 1 cells [8] = test: ELISA cell death detection assay; assay type: cell-based, human
K303R Arom 1 cells [9] = test: ELISA cell death detection assay; assay type: cell-based, human
MCF-7 Arom 1 cells [10] = test: Anchorage-independent soft agar growth assay; assay type: cell-based, human; settings: for colony growth: ICI 182,780 1 μM
[11] = test system: K303R Arom 1 and Arom 2 cells; test: Anchorage-independent soft agar growth assay; assay type: cell-based, human; settings: for AD-induced colony formation: AD 10 nmol/L + Ana 1 μmol/L, 14 days; for colony growth: ICI 182,780 1 μM
CHO K303R P cells = test: Soft agar assay in stable pools; assay type: cell-based, Chinese hamster; settings: AD 10 nmol/L + Ana 1 μmol/L
[12] = test system: K303R ERα ERE-luciferase reporter; test: ERα transactivation assay (ERE-luciferase) in CHO cells; assay type: cell-based, Chinese hamster; settings: LY 10 μmol/L or ICI 1 μmol/L
MCF-7 WT cells = test: Anchorage-independent soft agar growth assay; assay type: cell-based, human; settings: Tam 100 nM, 14 days
[13] = test system: MCF-7 K303R ERα-overexpressing cells; test: Anchorage-independent soft agar growth assay; assay type: cell-based, human; settings: for reduction in colonies: Tam 100 nM
[14] = test system: MCF-7 K303R ERα-expressing cells; test: MTT growth assay with growth factors; assay type: cell-based, human
[15] = test system: MCF-7 WT ERα-expressing cells; test: MTT growth assay with growth factors; assay type: cell-based, human; settings: Tam alone
[16] = test system: AP-1 activity in MCF-7 K303R cells; test: AP-1 luciferase reporter assay; assay type: cell-based, human
[17] = test system: phosphorylated S305 ERα, HER2, Akt, MAPK in MCF-7 K303R cells; test: Immunoblot after S305 blocking peptide delivery and heregulin; assay type: cell-based, human; settings: peptide 4 μg/well 4 h, heregulin 10 min
[18] = test system: phosphorylated HER2, Akt, MAPK in MCF-7 WT cells; test: as above; assay type: cell-based, human; settings: peptide 4 μg/well 4 h, heregulin 10 min
[19] = AD 10 nmol/L + Ana 1 μmol/L versus AD

`CC(C)(C#N)c1cc(Cn2cncn2)cc(C(C)(C)C#N)c1` [Ana, anastrozole] was tested, and the AD-stimulated growth [1] was “unable to reduce; also recorded: further stimulated”, the PARP cleavage [2] was “unchanged” and the “PARP proteolysis compared with AD treatment” value [3] was “increased proteolysis”. For the same compound, the “constitutive pAkt levels” value ([4]; AD 10 nM + Ana 1 μM, 1 h) was “not affected; also recorded: unaffected”, the “AD-induced pAkt levels” value ([5]; AD 10 nM + Ana 1 μM, 1 h) was “reduced” and the “reduction of aromatase activity” value (aromatase) was 95%. For the same compound, the “decrease of AD-stimulated growth” value (MCF-7 Arom 1 cells [6]) was 47% and ~40%, the “decrease of AD-stimulated growth” value (MCF-7 Arom 1 cells [6]; listed as AN) was 40% and the “effect on AD-stimulated growth” value (K303R Arom 1 cells [7]) was “had no effect”. The cell apoptosis (MCF-7 Arom 1 cells [8]; [19]) was “significant increase”, the apoptotic response (K303R Arom 1 cells [9]; [19]) was “no change” and the AD-stimulated colony growth (MCF-7 Arom 1 cells [10]; AD 10 nmol/L + Ana 1 μmol/L, 14 days) was “completely abrogated”. For the same compound, the AD-induced colony formation [11] was “did not inhibit; also recorded: unable to inhibit”, the AD-induced colony formation ([11]; listed as AN) was “unable to inhibit” and the AD-stimulated growth (CHO K303R P cells) was “did not reverse”.
`C[C@]12CC[C@@H]3c4ccc(O)cc4C[C@@H](CCCCCCCCC[S+]([O-])CCCC(F)(F)C(F)(F)F)[C@H]3[C@@H]1CC[C@@H]2O` (stereo partly shown) [ICI 182,780, fulvestrant] was tested, and the “pAkt with short-term treatment” value ([4]; ICI 1 μmol/L, 1-30 min) was “no changes”, the pAkt levels ([4]; ICI 1-48 h) was “decrease” and the “basal pAkt” value ([5]; ICI182,780 1-48 h) was “not basal pAkt”. For the same compound, the ERE activity [12] was “inhibited”, the colony growth (MCF-7 Arom 1 cells [10]) was “significantly suppressed” and the colony growth (MCF-7 Arom 1 cells [10]; listed as ICI182,780) was “suppressed”. The colony growth [11] was “significantly suppressed” and the colony growth ([11]; listed as ICI182,780) was “suppressed”.
With `O=c1[nH]c2ccccc2n1C1CCN(Cc2ccc(-c3nc4cc5nc[nH]c5cc4nc3-c3ccccc3)cc2)CC1` [Akti1/2, Akt inhibitor VIII isozyme-selective] the “basal Akt phosphorylation” value [4] was “effectively blocked”, the “inhibition of basal, AD-stimulated and Ana-stimulated growth” value (MCF-7 Arom 1 cells [10]; Akti1/2 1 μmol/L) was ~30% and the inhibition of growth ([11]; Akti1/2 1 μmol/L) was > 90%.
`CC/C(=C(\c1ccccc1)c1ccc(OCCN(C)C)cc1)c1ccccc1` [Tam, tamoxifen] was tested, and the reduction in colonies (MCF-7 WT cells; estrogen (E2 1 nM)-stimulated) was 78%, the reduction in colonies (MCF-7 WT cells; heregulin (2 ng/ml)-stimulated) was 96% and the heregulin-induced anchorage-independent growth ([13]; Tam, 14 days) was “unable to block; also recorded: failed to inhibit”. For the same compound, the reduction in colonies ([13]; estrogen (E2 1 nM)-stimulated, 14 days) was 54%, the reduction in colonies ([13]; heregulin (2 ng/ml)-stimulated, 14 days) was 21% and the growth ([14]; Tam alone, MTT) was “enhanced”. For the same compound, the “growth when stimulated with growth factors” value ([14]; Tam with heregulin, EGF or IGF-1, MTT) was “super-agonist”, the control growth [15] was “inhibited” and the “growth factor-induced AP-1 activity” value ([16]; presence of Tam) was “unable to reverse”.
In the case of `O=c1cc(N2CCOCC2)oc2c(-c3ccccc3)cccc12` [LY294002], the apoptosis induction (MCF-7 Arom 1 cells [8]; LY 10 μmol/L, 72 h) is reported as 1.7 fold and the “increase in the apoptotic rate compared with AD” value (K303R Arom 1 cells [9]; LY 10 μmol/L, 72 h) is reported as 3.6 fold.
With 17β-Estradiol [E2] the “soft agar growth at lowest E2 concentration” value ([13]; E2 10^−12, 14 days, p=0.005) was “significantly enhance”.
With `COc1cccc(-c2cc(=O)c3ccccc3o2)c1N` [PD98059] the “antiproliferative effects on basal growth” value ([11]; PD98059 10 μM) was “not observed”, the “reversal of the AI^R phenotype” value ([11]; PD98059 10 μM) was “did not reverse” and the “reversal of the AI^R phenotype” value ([11]; PD98059 10 μM, listed as PD) was “unable to reverse”.
With heregulin the AP-1 activity ([16]; only in mutant-expressing cells) was “induced high AP-1 activity”.
With “IKRSKKNSLALSC (blocking sequence) [S305 blocking peptide]” the “phosphorylation of the mutant receptor at S305” value [17] was “abrogated”, the “heregulin-induced phosphorylation of downstream signaling molecules (HER2, Akt, MAPK)” value ([17]; more pronounced than in WT) was “abrogated; also recorded: inhibited” and the “heregulin-induced phosphorylation of downstream signaling molecules (HER2, Akt, MAPK)” value [18] was “abrogated; also recorded: inhibited”.
With `Oc1cccc(-c2nc(N3CCOCC3)c3oc4ncccc4c3n2)c1` [PI-103] the “basal Akt phosphorylation” value [4] was “effectively blocked”.
